Laboratory results: paper PMC7382964 (Biochemical pharmacology, 2020)

Key:
A3AR [1] = conditions: Gao et al.; cited from earlier work
A3AR [2] = conditions: Gao et al.; cited from earlier work; remark: listed apart in the source
A3AR [3] = conditions: cited from earlier work
cannabinoid receptor CB1 [4] = molecular target: T1, cannabinoid receptor CB1 (Homo sapiens, UniProt P21554); assay: βarr2 recruitment assay with CB1 cannabinoid receptor; assay type: cell-based; conditions: 5 μM
cannabinoid receptor CB1 [5] = molecular target: T1, cannabinoid receptor CB1; assay: miniGαi coupling assay with CB1 cannabinoid receptor; assay type: cell-based; conditions: 5 μM
hA3AR [6] = molecular target: hA3AR (Homo sapiens, UniProt P0DMS8); assay: βarr2 recruitment bioassay; assay type: cell-based
hA3AR [7] = molecular target: T2, hA3AR (Homo sapiens, UniProt P0DMS8); assay: miniGαi recruitment bioassay; assay type: cell-based
T2 sequence (P0DMS8 1-318): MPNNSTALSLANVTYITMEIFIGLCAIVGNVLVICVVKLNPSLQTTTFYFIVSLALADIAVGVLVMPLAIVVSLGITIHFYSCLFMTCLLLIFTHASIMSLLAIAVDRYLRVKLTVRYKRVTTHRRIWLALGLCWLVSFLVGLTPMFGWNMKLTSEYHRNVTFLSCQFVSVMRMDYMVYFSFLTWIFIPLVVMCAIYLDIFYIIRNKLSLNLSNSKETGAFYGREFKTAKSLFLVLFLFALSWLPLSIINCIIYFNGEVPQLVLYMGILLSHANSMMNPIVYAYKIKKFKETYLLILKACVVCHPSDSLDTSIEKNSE

[8] = addition of 2-chloro substituent
[9] = 90 min read-out, AUC, normalized to NECA

T1 sequence (P21554 whole entry): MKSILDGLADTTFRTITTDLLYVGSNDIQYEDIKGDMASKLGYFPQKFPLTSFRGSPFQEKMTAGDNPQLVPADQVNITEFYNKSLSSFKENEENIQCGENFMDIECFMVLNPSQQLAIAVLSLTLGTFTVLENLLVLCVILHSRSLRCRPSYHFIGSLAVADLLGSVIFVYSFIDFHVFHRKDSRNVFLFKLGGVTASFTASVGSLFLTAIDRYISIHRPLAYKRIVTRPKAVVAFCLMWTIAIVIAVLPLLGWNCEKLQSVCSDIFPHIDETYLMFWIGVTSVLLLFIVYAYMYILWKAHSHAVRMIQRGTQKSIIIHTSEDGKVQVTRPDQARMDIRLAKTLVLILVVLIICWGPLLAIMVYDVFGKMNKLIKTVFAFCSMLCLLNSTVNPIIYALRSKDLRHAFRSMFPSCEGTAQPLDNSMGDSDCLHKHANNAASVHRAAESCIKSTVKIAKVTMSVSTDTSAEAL

CNC(=O)[C@H]1O[C@@H](n2cnc3c(NCc4cccc(I)c4)nc(Cl)nc32)[C@H](O)[C@@H]1O [2-Cl-IB-MECA, 2-chloro-N^6-(3-iodobenzyl)-5′-N-methylcar-boxamidoadenosine]
agonist class in calcium mobilization assay (A3AR [1]): partial agonist
agonist class in PathHunter assay for βarr2 recruitment (A3AR [2]): full agonist

OC[C@H]1O[C@@H](n2cnc3c(N[C@H]4C[C@@H]4c4ccccc4)ncnc32)[C@H](O)[C@@H]1O [compound 1, N^6-((1S,2R)-2-phenyl-1-cyclopropyl)-adenosine]
signal in βarr2 recruitment assay with CB1-LgBiT (cannabinoid receptor CB1 [4]): unable to generate a signal
signal in miniGαi coupling assay with CB1-LgBiT (cannabinoid receptor CB1 [5]): unable to generate a signal

OCC1OC(n2cnc3c(NC4CC4c4ccccc4)ncnc32)C(O)C1O (stereo not shown) [compound 2]
fold reduction in potency versus compound 1, βarr2 (hA3AR [6]; inversion to 1R,2S orientation): 40 fold
fold reduction in potency versus compound 1, miniGαi (hA3AR [7]; inversion to 1R,2S orientation): ~100 fold

OCC1OC(n2cnc3c(NC4CCCCC4c4ccccc4)ncnc32)C(O)C1O (stereo not shown) [compound 4]
receptor activation signal, βarr2 bioassay (hA3AR [6]): no clear activation signal
receptor activation signal, miniGαi bioassay (hA3AR [7]): no clear activation signal

CC(Cc1ccccc1)Nc1nc(Cl)nc2c1ncn2C1OC(CO)C(O)C1O (stereo not shown) [compound 9]
fold increased potency versus compound 8, βarr2 (hA3AR [6]; [8]): approximately five
fold increased potency versus compound 8, miniGαi (hA3AR [7]; [8]): approximately five

CC(C)Nc1ncnc2c1ncn2[C@@H]1O[C@H](CO)[C@H](O)C1O (stereo partly shown) [compound 10]
EC50 (hA3AR [6]; read-out: EC50, βarr2 recruitment, 90 min read-out, AUC, normalized to NECA): 669 nM
EC50 (hA3AR [7]; read-out: EC50, miniGαi recruitment, 90 min read-out, AUC, normalized to NECA): 433 nM

CC(C)C(Nc1ncnc2c1ncn2C1OC(CO)C(O)C1O)C(C)C (stereo not shown) [compound 12]
receptor activation signal, βarr2 bioassay (hA3AR [6]): could not be measured
receptor activation signal, miniGαi bioassay (hA3AR [7]): could not be measured

OCC1OC(n2cnc3c(NC(C4CC4)C4CC4)ncnc32)C(O)C1O (stereo not shown) [compound 13]
receptor activation signal, βarr2 bioassay (hA3AR [6]): same observation
receptor activation signal, miniGαi bioassay (hA3AR [7]): same observation

OC[C@H]1O[C@@H](n2cnc3c(NCc4ccco4)ncnc32)[C@H](O)[C@@H]1O [compound 14]
EC50, βarr2 recruitment (hA3AR [6]; [9]): micromolar range
EC50, miniGαi recruitment (hA3AR [7]; [9]): micromolar range

OCC1OC(n2cnc3c(NCc4cccs4)ncnc32)C(O)C1O (stereo not shown) [compound 15]
EC50, βarr2 recruitment (hA3AR [6]; [9]): micromolar range
EC50, miniGαi recruitment (hA3AR [7]; [9]): micromolar range

OCC1OC(n2cnc3c(NC4CCc5ccccc54)ncnc32)C(O)C1O (stereo not shown) [compound 17]
EC50, βarr2 recruitment (hA3AR [6]; [9]): micromolar range
EC50, miniGαi recruitment (hA3AR [7]; [9]): micromolar range

OC[C@H]1O[C@@H](n2cnc3c(NCC(c4ccccc4)c4ccccc4)ncnc32)[C@H](O)[C@@H]1O [compound 19]
functional class in the cAMP pathway (A3AR [3]; Tchilibon et al.): antagonist
